Among the test systems are HOP-92 NSCLC; EKVX NSCLC; PC-3 prostate; A498 renal; DU-145 prostate; MCF7 breast; A549 NSCLC; HS 578T breast; K-562 leukemia; OVCAR-5 ovarian.
What all share (experiment): NCI anticancer screen, dose series, 48 h

Several values for one entry are separate records, joined by “and”; a condition that tells them apart may be missing. Identical values can stand only once.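 48-hour exposure; five concentrations; linearly interpolated endpoints. Here, GI50 denotes the concentration required for 50% inhibition of growth. TGI: total growth inhibition.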

In the case of `CNS(=O)(=O)OCC1OC(n2cnc3cncnc32)C(O)C1O` (configuration not stated), the GI50 in the experiment on HOP-92 NSCLC, in the experiment on EKVX NSCLC, with PC-3 prostate, in the experiment on A498 renal, in the experiment with DU-145 prostate and with MCF7 breast was more than 100 µM throughout. Besides, the GI50 with A549 NSCLC, in the experiment with HS 578T breast, with K-562 leukemia and with OVCAR-5 ovarian was more than 100 µM throughout. Moreover, the TGI in the experiment with HOP-92 NSCLC, with EKVX NSCLC, in the experiment on PC-3 prostate, in the experiment with A498 renal, with DU-145 prostate and in the experiment with MCF7 breast was more than 100 µM each time. Also, the TGI with A549 NSCLC, with HS 578T breast, in the experiment with K-562 leukemia and with OVCAR-5 ovarian was more than 100 µM each time.

`COc1cc2c(NCCCCCO)ncnc2c(OC)c1OC`: the TGI in the experiment with HOP-92 NSCLC, with EKVX NSCLC, with PC-3 prostate, in the experiment on A498 renal, with DU-145 prostate and in the experiment with MCF7 breast was more than 100 µM in each case. Moreover, the TGI with A549 NSCLC, with HS 578T breast, with K-562 leukemia and in the experiment with OVCAR-5 ovarian was more than 100 µM each time.

Consider `COC(=O)c1ccc2nc(-c3cc4ccccc4n3C)n(CCCCOc3cc4c(cc3OC)C(=O)N3CCC[C@H]3C=N4)c2c1`, for which the GI50 is 0.347 µM in the experiment with HOP-92 NSCLC; 2.41 µM with EKVX NSCLC; 0.457 µM in the experiment with PC-3 prostate; 0.374 µM with A498 renal; 0.234 µM with DU-145 prostate; 0.292 µM in the experiment on MCF7 breast. Also, the GI50 was 1.5 µM in the experiment on A549 NSCLC, 0.276 µM in the experiment on HS 578T breast, 0.286 µM in the experiment on K-562 leukemia and 0.811 µM in the experiment on OVCAR-5 ovarian. Moreover, the TGI in the experiment with HOP-92 NSCLC stood at 2.77 µM; in the experiment with EKVX NSCLC it was 6.46 µM; with PC-3 prostate, 10.3 µM; in the experiment on A498 renal, 1.73 µM; in the experiment with DU-145 prostate it was 0.564 µM; in the experiment with MCF7 breast, 1.41 µM. Further, the results for the TGI with A549 NSCLC, with HS 578T breast and in the experiment with OVCAR-5 ovarian were 10.3 µM, 1.42 µM and 2.06 µM, respectively.

With `Cc1ccc(F)c(NC(=O)Nc2ccc(-c3cccc4[nH]nc(N)c34)cc2)c1`, the GI50 was 3.67 µM and 3.17 µM in the experiment with HOP-92 NSCLC; 3.58 µM and 3.52 µM in the experiment on EKVX NSCLC; 4.18 µM and 4.54 µM with PC-3 prostate; 2.24 µM and 2.71 µM with A498 renal; 3.68 µM and 3.37 µM with DU-145 prostate; 2.29 µM and 2.07 µM with MCF7 breast. In addition, the GI50 in the experiment on A549 NSCLC was 2.31 µM and 2.12 µM; in the experiment with HS 578T breast it was 2.5 µM and 2.91 µM; in the experiment with K-562 leukemia, 3.66 µM and 2.28 µM; with OVCAR-5 ovarian it was 2.74 µM and 3.42 µM. The TGI in the experiment on HOP-92 NSCLC was 14.4 µM and 8.25 µM; in the experiment on EKVX NSCLC it was 16.6 µM and > 10 µM; in the experiment with PC-3 prostate it was 17.7 µM and > 10 µM; in the experiment on A498 renal it was 7.02 µM and 9.3 µM; in the experiment on DU-145 prostate it was 13.1 µM and > 10 µM; with MCF7 breast it was 8.4 µM and > 10 µM. Besides, the TGI with A549 NSCLC is 5.97 µM and 4.95 µM; in the experiment with HS 578T breast, 12.6 µM and > 10 µM; with K-562 leukemia, > 57.5 µM and 9.29 µM; in the experiment on OVCAR-5 ovarian, 9.11 µM and > 10 µM.

Regarding `Cc1ccc(C)c2c1C(=O)N(c1ccc(F)cc1F)C2=O`, the GI50 with HOP-92 NSCLC was 1.11 µM; with EKVX NSCLC, more than 100 µM; in the experiment on PC-3 prostate, more than 100 µM; in the experiment with A498 renal, more than 100 µM; in the experiment with DU-145 prostate, more than 100 µM; with MCF7 breast, more than 100 µM. For the same molecule, the GI50 with A549 NSCLC, in the experiment on HS 578T breast, in the experiment on K-562 leukemia and in the experiment on OVCAR-5 ovarian was more than 100 µM each time. Moreover, the TGI in the experiment on HOP-92 NSCLC, in the experiment with EKVX NSCLC, in the experiment with PC-3 prostate, in the experiment with A498 renal, in the experiment with DU-145 prostate and in the experiment with MCF7 breast was more than 100 µM in each case. In addition, the TGI in the experiment with A549 NSCLC, in the experiment with HS 578T breast, in the experiment on K-562 leukemia and in the experiment with OVCAR-5 ovarian was more than 100 µM throughout.

Consider `CC(c1cc(Cl)ccc1O)c1cc(Cl)ccc1O`, for which the GI50 in the experiment on HOP-92 NSCLC was 1.71 µM; with EKVX NSCLC, 2.98 µM; in the experiment on PC-3 prostate, 3.73 µM; in the experiment on A498 renal it was 8.4 µM; in the experiment on DU-145 prostate, 5.2 µM; with MCF7 breast, 3.19 µM. Besides, the results for the GI50 in the experiment with A549 NSCLC, in the experiment with HS 578T breast and in the experiment on OVCAR-5 ovarian were 4.15 µM, 2.74 µM and 11.1 µM, respectively. The TGI in the experiment with HOP-92 NSCLC was 5.35 µM; with EKVX NSCLC it was 13.4 µM; in the experiment on PC-3 prostate, 15 µM; with A498 renal, 20.8 µM; with DU-145 prostate, 16.3 µM; with MCF7 breast, 16.5 µM. Further, the TGI in the experiment on A549 NSCLC was 18.9 µM; with HS 578T breast, 7.19 µM; in the experiment on OVCAR-5 ovarian, 26.7 µM.

As to `CCn1c(-c2nonc2N)nc2c(C#CC(C)(C)O)ncc(OC3CCNCC3)c21`, the GI50 in the experiment on HOP-92 NSCLC was more than 25 µM; in the experiment on EKVX NSCLC it was more than 25 µM; in the experiment on PC-3 prostate, 7.58 µM; with A498 renal, 0.0958 µM; with DU-145 prostate it was 10.4 µM; with MCF7 breast, 3.93 µM. The GI50 with A549 NSCLC was more than 25 µM; in the experiment on HS 578T breast it was 2.11 µM; with K-562 leukemia, 11.1 µM; with OVCAR-5 ovarian, more than 25 µM. Further, the TGI in the experiment on HOP-92 NSCLC is more than 25 µM; in the experiment with EKVX NSCLC it was more than 25 µM; with PC-3 prostate it was more than 25 µM; with A498 renal, 13.4 µM; in the experiment on DU-145 prostate, more than 25 µM; in the experiment on MCF7 breast, more than 22.5 µM. Further, the TGI with A549 NSCLC, in the experiment with HS 578T breast, in the experiment with K-562 leukemia and in the experiment on OVCAR-5 ovarian was more than 25 µM each time.

Take `Cc1ccc(-c2nc3nc(-c4ccc(F)cc4)nc(N4CCNCC4)c3o2)cc1`: the GI50 in the experiment on HOP-92 NSCLC was 4.5 µM; in the experiment on EKVX NSCLC, 4.53 µM; in the experiment with PC-3 prostate it was 1.91 µM; in the experiment with A498 renal it was 16.1 µM; in the experiment with DU-145 prostate, 2.6 µM; with MCF7 breast, 1.66 µM. The GI50 in the experiment on A549 NSCLC is 2.1 µM; in the experiment on HS 578T breast, 2.06 µM; with K-562 leukemia it was 1.46 µM; in the experiment with OVCAR-5 ovarian, 1.97 µM. The TGI was determined as 22.6 µM in the experiment with HOP-92 NSCLC; 17.3 µM in the experiment with EKVX NSCLC; 4.69 µM in the experiment on PC-3 prostate; 30.5 µM in the experiment on A498 renal; 6.45 µM in the experiment on DU-145 prostate; 3.51 µM with MCF7 breast. The TGI stood at 4.74 µM with A549 NSCLC, 5.12 µM in the experiment on HS 578T breast, 5.44 µM in the experiment with K-562 leukemia and 4.54 µM in the experiment with OVCAR-5 ovarian.

For the origin of these results see PubChem BioAssay (NCI).
